test system: P3 SCL; test: In vivo play-off phage auditioning, P3 SCL tumor; design: species or system P3 stem cell-like glioblastoma in athymic nude mice; conditions: phage-displayed peptide; equimolar mix, i.v. 1 × 10^10 pfu/mouse, 2 h circulation, perfusion; Ion-Torrent sequencing; mean, N = 3 mice
Protocol: (§1) Athymic nude mice (Hsd/Athymic Fox1 nu Harlan) were purchased from Envigo (Netherlands) and maintained under standard housing conditions of the Animal Facility of the Institute of Biomedicine and Translational Medicine, University of Tartu (Tartu, Estonia). For orthotropic GBM tumor models, we used NCH421K, P13, and P3 stem cell-like, WT-GBM cells. The individual GBM cells around 2–3 × 10^5 in 3 μL PBS were intracranially implanted into mice brain 2 mm right and 1 mm anterior to the bregma. U87-MG and PC3 subcutaneous models were induced by injecting 2–9 × 10^6 cells in 100 µl PBS subcutaneously into the right flank of 11–15 week old male and female nude mice. All animal experiments were performed in accordance with the procedures approved by the Committee of Animal Experimentation of Estonian Ministry of Agriculture, permits #42 and #48.
(§2) In vivo play-off was used for internally controlled and competitive systemic phage homing studies in mice bearing tumor xenografts. Phages displaying the candidate TNC-C binding peptides and control peptides were individually amplified and purified by precipitation with PEG-8000 (Sigma-Aldrich, St. Louis, MO, USA), followed by […] gradient ultracentrifugation and dialysis. The phages were pooled at equimolar representation (Table 1 for details) and injected iv at 1 × 10^10 pfu (in 200 µl PBS) in tumor-bearing mice, circulated for 2 h, followed by anesthesia and intracardial perfusion with DMEM. The tumors and organs were collected in lysogeny broth (LB) medium containing 1% NP40, and the tissues were homogenized using a hand-held homogenizer. Phages in the tissue lysate were amplified in E.coli, purified by precipitation with PEG-8000, and DNA was extracted using a DNA extraction kit (High Pure PCR Template Preparation Kit; Roche, Basel, Switzerland). Next-generation sequencing of phage genomic DNA with Ion Torrent system (Thermo Fisher Scientific, Waltham, MA, USA) was used to evaluate the representation of each peptide-phage in the input mixture, in tumors and control organs. The FASTQ data from Ion Torrent were processed using a custom python script that identified the barcodes, constant flanking residues, and extracted the reads of the correct length.

Substance	Representation of phage in tumors, P3 SCL
AGRGRLVRAKLAAALE [Clone-5]	0.4 fold G7 control phage
AGVGRLRRAKLAAALE [Clone-1]	0.9 fold G7 control phage
AVRGRLRVAKLAAALE [Clone-3]	0.6 fold G7 control phage
CAGRGRLVRC [Modified clone-5]	0.2 fold G7 control phage
CRGVLRRAKLAAALE [Clone-2]	0.4 fold G7 control phage
CSRRGILRAKPAAALE [Clone-4]	0.9 fold G7 control phage
GGGGGGG [heptaglycine control phage, reference compound]	1.0 fold G7 control phage
GRLTRVR [Clone-46]	0.5 fold G7 control phage
RGRLVRA [Clone-45]	0.3 fold G7 control phage
RGRLVRAK [Modified clone-5]	0.3 fold G7 control phage
RRLVRVA [Clone-35]	0.3 fold G7 control phage

test system: P13; test: In vivo play-off phage auditioning, P13 tumor; design: species or system P13 glioblastoma in athymic nude mice; conditions: phage-displayed peptide; equimolar mix, i.v. 1 × 10^10 pfu/mouse, 2 h circulation, perfusion; Ion-Torrent sequencing; mean, N = 3 mice
Protocol: as §1, §2

Substance	Representation of phage in tumors, P13
AGRGRLVRAKLAAALE [Clone-5]	0.1 fold G7 control phage
AGVGRLRRAKLAAALE [Clone-1]	0.9 fold G7 control phage
AVRGRLRVAKLAAALE [Clone-3]	0.6 fold G7 control phage
CAGRGRLVRC [Modified clone-5]	0.4 fold G7 control phage
CRGVLRRAKLAAALE [Clone-2]	0.4 fold G7 control phage
CSRRGILRAKPAAALE [Clone-4]	0.8 fold G7 control phage
GGGGGGG [heptaglycine control phage, reference compound]	1.0 fold G7 control phage
GRLTRVR [Clone-46]	0.5 fold G7 control phage
RGRLVRA [Clone-45]	0.4 fold G7 control phage
RGRLVRAK [Modified clone-5]	0.1 fold G7 control phage
RRLVRVA [Clone-35]	0.4 fold G7 control phage

test system: U87-MG; test: In vivo play-off phage auditioning, U87-MG tumor; design: species or system human glioblastoma in athymic nude mice; conditions: phage-displayed peptide; equimolar mix, i.v. 1 × 10^10 pfu/mouse, 2 h circulation, perfusion; Ion-Torrent sequencing; mean, N = 3 mice
Protocol: as §1, §2

Substance	Representation of phage in tumors, U87-MG
AGRGRLVRAKLAAALE [Clone-5]	0.2 fold G7 control phage
AGVGRLRRAKLAAALE [Clone-1]	1.0 fold G7 control phage
AVRGRLRVAKLAAALE [Clone-3]	0.8 fold G7 control phage
CAGRGRLVRC [Modified clone-5]	0.1 fold G7 control phage
CRGVLRRAKLAAALE [Clone-2]	0.7 fold G7 control phage
CSRRGILRAKPAAALE [Clone-4]	1.1 fold G7 control phage
GGGGGGG [heptaglycine control phage, reference compound]	1.0 fold G7 control phage
GRLTRVR [Clone-46]	0.9 fold G7 control phage
RGRLVRA [Clone-45]	0.8 fold G7 control phage
RGRLVRAK [Modified clone-5]	0.5 fold G7 control phage
RRLVRVA [Clone-35]	0.6 fold G7 control phage

test system: recombinant TNC-C; test: Cell-free phage binding to TNC-C; design: species or system human; conditions: individual T7 phage clones; Ni-NTA magnetic beads coated with hexahistidine-tagged TNC-C
Protocol: For biopanning on recombinant human TNC-C, we used NNK-encoded CX7C and X7 peptide T7 phage libraries with diversity ~5 × 10^8. Throughout our screens, the selected phages were amplified following plate amplification protocol. The 1st and 4th rounds of biopanning were performed on TNC-C immobilized on Costar 96-Well ELISA plate (#3590, Corning Life Sciences, Tewksbury, MA, USA). Briefly, the multiwell plates were coated with 20 µg/ml recombinant TNC-C in 100 µl of PBS overnight at 4 °C, followed by blocking with 1% bovine serum albumin (BSA) in PBS overnight at 4 °C. The phage library (5 × 10^8 pfu in 100 µl of PBS-BSA) was incubated overnight at 4 °C, followed by 6 washes with PBS containing 1% BSA and 0.1% Tween-20 (washing buffer) to remove background phages, and by phage rescue and amplification in E. coli strain BLT5403 (Novagen, EMD Biosciences, MA, USA)[8]. The subsequent rounds of selection were performed on Ni-NTA Magnetic Agarose Beads (QIAGEN, Hilden, Germany) coated with His-6X tagged TNC-C (30 µg/10 µl beads) at room temperature for 1 h in 400 µl of PBS. The TNC-C beads were washed 3 times with washing buffer, followed by incubation with phages in (5 × 10^8 pfu in 100 µl in washing buffer) at room temperature for 1 h. The background phages were removed by rinsing 6 times with washing buffer, and the bound phages were eluted with 1 ml of PBS containing 500 mM Imidazole and 0.1% NP40.
The eluted phages were titered and amplified for a next round of selection. After 5 rounds of selection, peptide-encoding DNA from a set of 48 phage clones was subjected to Sanger sequencing of peptide-encoding phage DNA[18],[22]. For cell-free binding studies with individual phage clones were incubated with Ni-NTA magnetic beads coated with hexahistidine-tagged TNC-C as above. RPARPAR phage binding to NRP-1-coated beads was used as a positive control. Phage clones displaying heptaglycine peptide (GGGGGGG, G7), or insertless phage clones were used as negative controls. […]
Fig. S13. NRP -1-dependent internalization of PL3 -functionalized AgNPs […]
Supplementary Materials and Methods
Cloning, expression , and purification of TNC-C
Vector Construction. A pF1K (Promega, # FXC00319) derivative plasmid containing full -length cDNA of TNC was used for PCR amplification of cDNA region of TNC-C with Phusion Hot Start II High -Fidelity DNA Polymerase (Thermo Fisher Scientific Inc # F -537L; primer pairs:
5′- CTCCTCT […] -3′ and 5′ -
CAGACA CTCGAG TTATCA TGTAACAATCTC -3′ for domain TNC -C. NdeI and XhoI restriction sites underlined ). The fragments were cloned in the pET28a+ plasmid for TNC -C expression as a n N-terminally His -tagged protein .
Expression and purification of TNC-C. The pET28a+ TNC-C plasmid was used for transformation of E. coli BL21 Rosetta 2 (DE3) pLysS cells (Novagen, #70956). The protein expression was induced by addition of isopropyl β-D-1-thiogalactopyranoside (IPTG) (Sigma, # I6758) to 0.5 mM final concentration and the bacteria were culture d at 18 °C for 16h . Cells were […]
collected by centrifugation, resuspended in ice-cold IMAC buffer (25mM Tris-HCl, 400mM NaCl, 25mM imidazole pH 8, containing EDTA-free protease inhibitor cocktail and DNase I) and lysed by sonification (Bandelin Sonopuls HD 2070, Germany). The cleared bacterial lysate was purified using HiTrap IMAC HP column s (GE Healthcare # 17 -0920-05) on ÄKTA purification system (GE Healthcare ), and the eluate was dialyzed against PBS using 3.5 kDa cut - off 3mL Slide-A-Lyzer Dialysis Cassettes (Thermo Scientific #66330). TNC-C concentration was determined by bicinchoninic acid assay (Thermo Scientific #23227) , and the purity of the proteins was assessed by SDS -PAGE. Mass spectrometry and de novo peptide sequencing were used to confirm the size and sequence of the purified proteins . His-tagged NRP-1 b1b2 domain was expressed and purified as described (Teesalu et al., 2009) .
Single-chain antibodies: The cDNA sequences encoding TNC-C-G11-scFV were retrieved from […]

Substance	TNC-C binding (fold G7 control phage)
AGRGRLVRAKLAAALE [Clone-5]	5785 fold G7 control phage
AGVGRLRRAKLAAALE [Clone-1]	3259 fold G7 control phage
CQRMGVVGAKLAAALE [Clone 36]	3928 fold G7 control phage
CRGVLRRAKLAAALE [Clone-2]	5955 fold G7 control phage
CSRRGILRAKPAAALE [Clone-4]	4889 fold G7 control phage
GRLTRVR [Clone-46]	115 fold G7 control phage
RGRLRRVE [Clone 44]	886 fold G7 control phage
RGRLVRA [Clone-45]	737 fold G7 control phage
RRLVRVA [Clone-35]	1223 fold G7 control phage

test system: PC3; test: In vivo play-off phage auditioning, PC3 tumor; design: species or system prostate carcinoma in athymic nude mice; conditions: phage-displayed peptide; equimolar mix, i.v. 1 × 10^10 pfu/mouse, 2 h circulation, perfusion; Ion-Torrent sequencing; mean, N = 3 mice
Protocol: as §1, §2

Substance	Representation of phage in tumors, PC3
AGRGRLVRAKLAAALE [Clone-5]	0.3 fold G7 control phage
AGVGRLRRAKLAAALE [Clone-1]	1.4 fold G7 control phage
AVRGRLRVAKLAAALE [Clone-3]	1.0 fold G7 control phage
CAGRGRLVRC [Modified clone-5]	0.4 fold G7 control phage
CRGVLRRAKLAAALE [Clone-2]	0.9 fold G7 control phage
CSRRGILRAKPAAALE [Clone-4]	1.2 fold G7 control phage
GGGGGGG [heptaglycine control phage, reference compound]	1.0 fold G7 control phage
GRLTRVR [Clone-46]	0.9 fold G7 control phage
RGRLVRA [Clone-45]	1.8 fold G7 control phage
RGRLVRAK [Modified clone-5]	3.0 fold G7 control phage
RRLVRVA [Clone-35]	0.9 fold G7 control phage

test system: Norm. brain; test: In vivo play-off phage auditioning, normal brain; design: species or system athymic nude mice; conditions: phage-displayed peptide; equimolar mix, i.v. 1 × 10^10 pfu/mouse, 2 h circulation, perfusion; Ion-Torrent sequencing; mean, N = 3 mice
Protocol: as §2

Substance	Representation of phage in control brain tissue (Norm. brain)
AGRGRLVRAKLAAALE [Clone-5]	0.0 fold G7 control phage
AGVGRLRRAKLAAALE [Clone-1]	0.2 fold G7 control phage
AVRGRLRVAKLAAALE [Clone-3]	0.1 fold G7 control phage
CAGRGRLVRC [Modified clone-5]	0.0 fold G7 control phage
CRGVLRRAKLAAALE [Clone-2]	0.1 fold G7 control phage
CSRRGILRAKPAAALE [Clone-4]	0.1 fold G7 control phage
GGGGGGG [heptaglycine control phage, reference compound]	1 fold G7 control phage
GRLTRVR [Clone-46]	0.1 fold G7 control phage
RGRLVRA [Clone-45]	0.1 fold G7 control phage
RGRLVRAK [Modified clone-5]	0.2 fold G7 control phage
RRLVRVA [Clone-35]	0.1 fold G7 control phage

test system: WT-GBM; test: In vivo play-off phage auditioning, WT-GBM tumor; design: species or system murine WT-GBM glioblastoma in athymic nude mice; conditions: phage-displayed peptide; equimolar mix, i.v. 1 × 10^10 pfu/mouse, 2 h circulation, perfusion; Ion-Torrent sequencing; mean, N = 3 mice
Protocol: as §1, §2

Substance	Representation of phage in tumors, WT-GBM
AGRGRLVRAKLAAALE [Clone-5]	23.9 fold G7 control phage
AGVGRLRRAKLAAALE [Clone-1]	2.3 fold G7 control phage
AVRGRLRVAKLAAALE [Clone-3]	1.3 fold G7 control phage
CAGRGRLVRC [Modified clone-5]	0.9 fold G7 control phage
CRGVLRRAKLAAALE [Clone-2]	1.6 fold G7 control phage
CSRRGILRAKPAAALE [Clone-4]	1.5 fold G7 control phage
GGGGGGG [heptaglycine control phage, reference compound]	1.0 fold G7 control phage
GRLTRVR [Clone-46]	1.9 fold G7 control phage
RGRLVRA [Clone-45]	3 fold G7 control phage
RGRLVRAK [Modified clone-5]	23.8 fold G7 control phage
RRLVRVA [Clone-35]	1.4 fold G7 control phage

From publication PMC7118115, “Tumor-penetrating peptide for systemic targeting of Tenascin-C” (Scientific Reports, 2020)
